Consider eight compounds from US9216965B2, “Amino-quinolines as kinase inhibitors” (GlaxoSmithKline Intellectual Property Development Limited, priority 2012, dated 2015).

Structures can show the parent of a compound that is named as a salt.

The term IC50 denotes the concentration that gives 50% inhibition. Low readings indicate inhibition by little substance, high ones a need for much substance.

The target of this assay is T1, RIPK2 (Homo sapiens, UniProt O43353).
T1 construct: Full length FLAG His tagged RIPK2 was purified from a Baculovirus expression system; FLAG (N); 6His (N); made in house; host or cells: Spodoptera frugiperda (Sf9) insect cells, baculovirus
T1 sequence (O43353 whole entry): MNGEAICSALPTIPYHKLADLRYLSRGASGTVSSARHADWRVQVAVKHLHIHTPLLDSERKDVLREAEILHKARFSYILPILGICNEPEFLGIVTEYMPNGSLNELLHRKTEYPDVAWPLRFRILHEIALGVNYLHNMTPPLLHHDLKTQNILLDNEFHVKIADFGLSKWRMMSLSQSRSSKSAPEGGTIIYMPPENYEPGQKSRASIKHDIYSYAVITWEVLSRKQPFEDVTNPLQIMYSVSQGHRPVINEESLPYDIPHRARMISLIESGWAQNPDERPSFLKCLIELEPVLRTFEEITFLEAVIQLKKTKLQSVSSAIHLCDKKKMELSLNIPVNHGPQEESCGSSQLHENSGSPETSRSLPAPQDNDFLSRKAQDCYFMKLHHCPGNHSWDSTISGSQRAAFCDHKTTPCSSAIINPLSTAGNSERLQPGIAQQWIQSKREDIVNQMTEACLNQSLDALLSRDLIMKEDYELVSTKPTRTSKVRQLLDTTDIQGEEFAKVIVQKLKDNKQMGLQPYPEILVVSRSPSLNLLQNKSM
The assay can be described thus: Fluorescent polarization based binding assay at the ATP binding pocket of RIPK2. To be noted: full length FLAG His tagged RIPK2; competition with fluorescently labeled ATP competitive ligand (5 nM); mean of a minimum of 2 experiments. How it is done: A fluorescent polarization based binding assay was developed to quantitate interaction of novel test compounds at the ATP binding pocket of RIPK2, by competition with a fluorescently labeled ATP competitive ligand. Full length FLAG His tagged RIPK2 was purified from a Baculovirus expression system and was used at a final assay concentration of twice the KDapparent. […] Both the enzyme and ligand were prepared in solutions in 50 mM HEPES pH7.5, 150 mM NaCl, 10 mM MgCl2, 1 mM DTT, and 1 mM CHAPS. Test compounds were prepared in 100% DMSO and 100 nL was dispensed to individual wells of a multiwell plate. Next, 5 ul RIPK2 was added to the test compounds at twice the final assay concentration, and incubated at rt for 10 min. Following the incubation, 5 ul of the fluorescent labeled ligand solution, was added to each reaction, at twice the final assay concentration, and incubated at rt for at least 10 min. Finally, samples were read on an instrument capable of measuring fluorescent polarization. Test compound inhibition was expressed as percent (%) inhibition of internal assay controls.
For concentration/dose response experiments, normalized data were fit and pIC50s determined using conventional techniques.
Gateway® LR cloning was used to site-specifically recombine RIPK2 downstream to an N-terminal FLAG-6His contained within the destination vector pDEST8-FLAG-His6 according to the protocol described by Invitrogen. Transfection into Spodoptera frugiperda (Sf9) insect cells was performed using Cellfectin® (Invitrogen), according to the manufacturer's protocol.
In the case of `Cc1n[nH]c(Nc2ccnc3cc(OCC(C)O)c(S(=O)(=O)C(C)(C)C)cc23)c1C` (racemic) [Example 1, 1-((6-(tert-Butylsulfonyl)-4-((3,4-dimethyl-1H-pyrazol-5-yl)amino)quinolin-7-yl)oxy)propan-2-ol], the IC50 was 3.98 nM.

Turning to `Cc1n[nH]c(Nc2ccnc3cc(OC[C@@H](C)O)c(S(=O)(=O)C(C)(C)C)cc23)c1C` [2(R), (R)-1-((6-(tert-Butylsulfonyl)-4-((3,4-dimethyl-1H-pyrazol-5-yl)amino)quinolin-7-yl)oxy)propan-2-ol, hydrochloride], the IC50 is 3.16 nM.

As for `Cc1n[nH]c(Nc2ccnc3cc(OC[C@H](C)O)c(S(=O)(=O)C(C)(C)C)cc23)c1C` [2(S), (S)-1-((6-(tert-butylsulfonyl)-4-((3,4-dimethyl-1H-pyrazol-5-yl)amino)quinolin-7-yl)oxy)propan-2-ol, hydrochloride], the IC50 was 3.16 nM.

`Cc1n[nH]c(Nc2ccnc3cc(OCC(C)(C)O)c(S(=O)(=O)C(C)(C)C)cc23)c1C` [Example 4, 1-((6-(tert-Butylsulfonyl)-4-((3,4-dimethyl-1H-pyrazol-5-yl)amino)quinolin-7-yl)oxy)-2-methylpropan-2-ol] showed an IC50 of 6.31 nM.

In the case of `Cc1n[nH]c(Nc2ccnc3cc(OCC(F)F)c(S(=O)(=O)C(C)(C)C)cc23)c1C` [Example 5, 6-(tert-Butylsulfonyl)-7-(2,2-difluoroethoxy)-N-(3,4-dimethyl-1H-pyrazol-5-yl)quinolin-4-amine], the IC50 is 5.01 nM.

`COCCCOc1cc2nccc(Nc3[nH]nc(C)c3C)c2cc1S(=O)(=O)C(C)(C)C` [Example 6, 6-(tert-Butylsulfonyl)-N-(3,4-dimethyl-1H-pyrazol-5-yl)-7-(3-methoxypropoxy)quinolin-4-amine] had an IC50 of 3.98 nM.

For `Cc1[nH]nc(Nc2ccnc3cc(OCC(F)(F)F)c(S(=O)(=O)C(C)(C)C)cc23)c1C` [Example 7, 6-(tert-butylsulfonyl)-N-(4,5-dimethyl-1H-pyrazol-3-yl)-7-(2,2,2-trifluoroethoxy) quinolin-4-amine], the IC50 was 5.01 nM.

The compound `Cc1n[nH]c(Nc2ccnc3cc(F)c(S(=O)(=O)C(C)(C)C)cc23)c1C` [Example 10, 6-(tert-Butylsulfonyl)-N-(3,4-dimethyl-1H-pyrazol-5-yl)-7-fluoroquinolin-4-amine] showed an IC50 of 15.8 nM.
